The subject of this experiment is M17—3TAU(P301L) cells. The experiment can be described thus: Neuroblastoma tauopathy model: inhibition of TAU-induced cytotoxicity (LDH). The class given is cell-based. The settings on record: Homo sapiens, 168 h; inhibition of TAU-induced toxicity (LDH), 7 days differentiation with retinoic acid. The method, boiled down:
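BE-M17 neuroblastoma cells stably expressing human TAU-P301L, differentiated with RA (2.5 μM in added medium) for 7 days at 37 °C with compounds at a range of concentrations. Cytotoxicity as supernatant LDH over total LDH (Cytotox 96); EC50 from dose-dependent inhibition curve.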

The structures appear in SMILES notation.

In general, EC50 refers to the concentration needed to bring the measured effect to its halfway point. Read a high EC50 as a need for much substance. `COc1cccc(CCN2CCN(c3nc(-c4ccc(Cl)cc4F)ns3)CC2)c1` [Example 55, 1-[3-(4-Chloro-2-fluoro-phenyl)-[1,2,4]thiadiazol-5-yl]-4-[2-(3-methoxy-phenyl)-ethyl]-piperazine]: the half-maximal effective concentration (EC50) is 4.2 nM.

The molecule `COc1cccc(CCN2CCN(c3nc(-c4ccccc4Cl)ns3)CC2)c1` [Example 57, 1-[3-(2-Chloro-phenyl)-[1,2,4]thiadiazol-5-yl]-4-[2-(3-methoxy-phenyl)-ethyl]-piperazine] returned an EC50 of 14.5 nM.

`Cc1cc(-c2nsc(N3CCN(CCc4ccccc4)CC3)n2)cnn1` [Example 173, 3-(6-methylpyridazin-4-yl)-5-(4-phenethylpiperazin-1-yl)-1,2,4-thiadiazole]: the half-maximal effective concentration (EC50) worked out at 2.9 nM.

Molecule `COc1ccc(CCN2CCN(c3nc(-c4cc(Cl)cc(Cl)c4)ns3)CC2)cc1` [Example 46, 1-[3-(3,5-Dichloro-phenyl)-[1,2,4]thiadiazol-5-yl]-4-[2-(4-methoxy-phenyl)-ethyl]-piperazine] returned a concentration for a half-maximal effect (EC50) of 31.2 nM.

In the case of `COc1ccc(CCN2CCN(c3nc(-c4ccc(OC)cc4)ns3)CC2)cc1` [Example 40, 1-[2-(4-Methoxy-phenyl)-ethyl]-4-[3-(4-methoxy-phenyl)-[1,2,4]thiadiazol-5-yl]-piperazine], the EC50 was 14.1 nM.

As to `COc1ccc(CCN2CCN(c3nc(-c4cccs4)ns3)CC2)cc1` [Example 44, 1-[2-(4-Methoxy-phenyl)-ethyl]-4-(3-thiophen-2-yl-[1,2,4]thiadiazol-5-yl)-piperazine], the half-maximal effective concentration (EC50) stood at 2.3 nM.

As to `Cc1ccccc1CN1CCN(c2nc(-c3ccc(C#N)cc3)ns2)CC1` [Example 118, 4-{5-[4-(2-Methyl-benzyl)-piperazin-1-yl]-[1,2,4]thiadiazol-3-yl}-benzonitrile], a half-maximal effect (EC50) was put at 181 nM.

In turn, `Fc1cccc(-c2nsc(N3CCN(CCC4CCCCC4)CC3)n2)c1` [Example 154, 1-(2-Cyclohexyl-ethyl)-4-[3-(3-fluoro-phenyl)[1,2,4]thiadiazol-5-yl]-piperazine] displayed an EC50 of 17 nM.

For `Clc1ccc(-c2nsc(N3CCN(CCc4ccccc4)CC3)n2)nc1` [Example 121, 1-[3-(5-Chloro-pyridin-2-yl)-[1,2,4]thiadiazol-5-yl]-4-phenethyl-piperazine], the midpoint of the response, the EC50, lay at 34.6 nM.

On to `FC(F)Oc1ccc(CCN2CCN(c3nc(-c4ccc(Cl)cc4)ns3)CC2)cc1` [Example 70, 1-[3-(4-Chloro-phenyl)-[1,2,4]thiadiazol-5-yl]-4-[2-(4-difluoromethoxy-phenyl)-ethyl]-piperazine], for which the half-maximal effective concentration (EC50) was found to be 194 nM.

`COc1ccc(CCN2CCN(c3nc(-c4ccc(Cl)cc4F)ns3)CC2)cc1` [Example 56, 1-[3-(4-Chloro-2-fluoro-phenyl)-[1,2,4]thiadiazol-5-yl]-4-[2-(4-methoxy-phenyl)-ethyl]-piperazine] showed a 50% effective concentration (EC50) of 5.5 nM.

`Cc1ccc(CCN2CCN(c3nc(-c4ccc(Cl)cc4)ns3)CC2)cc1` [Example 26, 1-[3-(4-Chloro-phenyl)-[1,2,4]thiadiazol-5-yl]-4-(2-p-tolyl-ethyl)-piperazine] had an EC50 of 4.9 nM.

Turning to `COc1ccccc1CCN1CCN(c2nc(-c3ccc(Cl)cc3)ns2)CC1` [Example 27, 1-[3-(4-Chloro-phenyl)-[1,2,4]thiadiazol-5-yl]-4-[2-(2-methoxy-phenyl)-ethyl]-piperazine], the midpoint of the response, the EC50, lay at 16.7 nM.

With `Cc1ccc(-c2nsc(N3CCN(CCc4ccc(Cl)c(Cl)c4)CC3)n2)cc1` [Example 5, 1-[2-(3,4-Dichloro-phenyl)-ethyl]-4-(3-p-tolyl-[1,2,4]thiadiazol-5-yl)-piperazine], the concentration for a half-maximal effect (EC50) was 396 nM.

`Cc1ncc(-c2nsc(N3CCN(CCc4ccc(F)c(F)c4)CC3)n2)cn1` [Example 182, 5-(4-(3,4-difluorophenethyl)piperazin-1-yl)-3-(2-methylpyrimidin-5-yl)-1,2,4-thiadiazole] showed a 50% effective concentration (EC50) of 192 nM.

Molecule `N#Cc1cccc(-c2nsc(N3CCN(CCc4ccc(Cl)cc4)CC3)n2)c1` [Example 113, 3-(5-{4-[2-(4-Chloro-phenyl)-ethyl]piperazin-1-yl}-[1,2,4]thiadiazol-3-yl)-benzonitrile] gave a concentration for a half-maximal effect (EC50) of 17.1 nM.

For `Cc1ncc(-c2nsc(N3CCN(CCc4ccc(F)cc4)CC3)n2)cn1` [Example 181, 5-(4-(4-fluorophenethyl)piperazin-1-yl)-3-(2-methylpyrimidin-5-yl)-1,2,4-thiadiazole], it took 31.6 nM to reach a half-maximal effect (EC50).

`COc1cccc(CCN2CCN(c3nc(-c4ccc(C)cc4)ns3)CC2)c1` [Example 16, 1-[2-(3-Methoxy-phenyl)-ethyl]-4-(3-p-tolyl-[1,2,4]thiadiazol-5-yl)-piperazine]: a half-maximal effect (EC50) was put at 65.3 nM.

For `COc1cc(CCN2CCN(c3nc(-c4ccc(C#N)cc4)ns3)CC2)ccn1` [Example 116, 4-(5-{4-[2-(2-Methoxy-pyridin-4-yl)-ethyl]-piperazin-1-yl}-[1,2,4]thiadiazol-3-yl)-benzonitrile], the EC50 amounted to 14.1 nM.

As to `COc1ccc(CCN2CCN(c3nc(-c4ccc(C#N)cc4)ns3)CC2)cn1` [Example 114, 4-(5-{4-[2-(6-Methoxy-pyridin-3-yl)-ethyl]-piperazin-1-yl}-[1,2,4]thiadiazol-3-yl)-benzonitrile], the EC50 was 7.9 nM.

Take `FC(F)(F)c1ccc(CCN2CCN(c3nc(-c4ccc(Cl)cc4)ns3)CC2)cc1` [Example 144, 1-[3-(4-Chloro-phenyl)-[1,2,4]thiadiazol-5-yl]-4-[2-(4-trifluoromethyl-phenyl)-ethyl]-piperazine]: the response was half-maximal at 602 nM (EC50).

`COc1ccc(C(=O)CN2CCN(c3nc(-c4ccc(Cl)cc4)ns3)CC2)cc1` [Example 53, 2-{4-[3-(4-Chloro-phenyl)-[1,2,4]thiadiazol-5-yl]-piperazin-1-yl}-1-(4-methoxy-phenyl)-ethanone] showed a concentration for a half-maximal effect (EC50) of 12.6 nM.

`FC(F)(F)c1cccc(CCN2CCN(c3nc(-c4ccc(Cl)cc4)ns3)CC2)c1` [Example 140, 1-[3-(4-Chloro-phenyl)-[1,2,4]thiadiazol-5-yl]-4-[2-(3-trifluoromethyl-phenyl)-ethyl]-piperazine] gave an EC50 of 72.6 nM.

`Cc1ccccc1CN1CCN(c2nc(-c3cccc(F)c3)ns2)CC1` [Example 99, 1-[3-(3-Fluoro-phenyl)-[1,2,4]thiadiazol-5-yl]-4-(2-methyl-benzyl)-piperazine] registered a half-maximal effective concentration (EC50) of 271 nM.

`Cc1ccc(-c2nsc(N3CCN(Cc4ccc(Cl)cc4Cl)CC3)n2)cc1` [Example 3, 1-(2,4-Dichloro-benzyl)-4-(3-p-tolyl-[1,2,4]thiadiazol-5-yl)-piperazine] yielded an EC50 of 987 nM.

In turn, `Fc1ccc(CCN2CCN(c3nc(-c4cncc(Cl)c4)ns3)CC2)cc1` [Example 131, 1-[3-(5-Chloro-pyridin-3-yl)-[1,2,4]thiadiazol-5-yl]-4-[2-(4-fluoro-phenyl)-ethyl]-piperazine] had a concentration for a half-maximal effect (EC50) of 1.3 nM.

As to `COc1ccc(CCN2CCN(c3nc(-c4cccc(Cl)c4)ns3)CC2)cn1` [Example 93, 1-[3-(3-Chloro-phenyl)-[1,2,4]thiadiazol-5-yl]-4-[2-(6-methoxy-pyridin-3-yl)-ethyl]-piperazine], the midpoint of the response, the EC50, lay at 0.9 nM.

`Cc1ncc(-c2nsc(N3CCN(CCc4ccc(Cl)cc4)CC3)n2)cn1` [Example 180, 5-(4-(4-chlorophenethyl)piperazin-1-yl)-3-(2-methylpyrimidin-5-yl)-1,2,4-thiadiazole] displayed an EC50 of 129 nM.

For the molecule `COc1cc(CCN2CCN(c3nc(-c4cccc(C#N)c4)ns3)CC2)ccn1` [Example 117, 3-(5-{4-[2-(2-Methoxy-pyridin-4-yl)-ethyl]-piperazin-1-yl}-[1,2,4]thiadiazol-3-yl)-benzonitrile], the EC50 is 5.8 nM.

Take `FC(F)(F)Oc1cccc(CCN2CCN(c3nc(-c4ccc(Cl)cc4)ns3)CC2)c1` [Example 38, 1-[3-(4-Chloro-phenyl)-[1,2,4]thiadiazol-5-yl]-4-[2-(3-trifluoromethoxy-phenyl)-ethyl]-piperazine]: a half-maximal effect (EC50) was put at 211 nM.

As for `Fc1ccc(CCN2CCN(c3nc(-c4ccc(F)c(F)c4)ns3)CC2)cc1` [Example 103, 1-[3-(3,4-Difluoro-phenyl)-[1,2,4]thiadiazol-5-yl]-4-[2-(4-fluoro-phenyl)-ethyl]-piperazine], the EC50 is 3.4 nM.

Regarding `Cc1ccc(-c2nsc(N3CCN(CCc4ccccc4)CC3)n2)cc1` [Example 4, 1-Phenethyl-4-(3-p-tolyl-[1,2,4]thiadiazol-5-yl)-piperazine], a half-maximal effect (EC50) was put at 115 nM.

As to `Cc1ccccc1CN1CCN(c2nc(-c3ccc(Cl)cn3)ns2)CC1` [Example 129, 1-[3-(5-Chloro-pyridin-2-yl)-[1,2,4]thiadiazol-5-yl]-4-(2-methyl-benzyl)-piperazine], a half-maximal response (EC50) required 92.3 nM.

As to `Clc1ccnc(-c2nsc(N3CCN(CCc4ccccc4)CC3)n2)c1` [Example 120, 1-[3-(4-Chloro-pyridin-2-yl)-[1,2,4]thiadiazol-5-yl]-4-phenethyl-piperazine], the midpoint of the response, the EC50, lay at 16.1 nM.

`COc1cc(CCN2CCN(c3nc(-c4cccc(Cl)c4)ns3)CC2)ccn1` [Example 89, 1-[3-(3-Chloro-phenyl)-[1,2,4]thiadiazol-5-yl]-4-[2-(2-methoxy-pyridin-4-yl)-ethyl]-piperazine] came in with an EC50 of 1.6 nM.

`FC(F)(F)c1ccc(CCN2CCN(c3nc(-c4cccc(Cl)c4)ns3)CC2)cc1` [Example 145, 1-[3-(3-Chloro-phenyl)-[1,2,4]thiadiazol-5-yl]-4-[2-(4-trifluoromethyl-phenyl)-ethyl]-piperazine] yielded an EC50 of 462 nM.

`Cc1cccc(CCN2CCN(c3nc(-c4ccc(Cl)cc4)ns3)CC2)c1` [Example 23, 1-[3-(4-Chloro-phenyl)-[1,2,4]thiadiazol-5-yl]-4-(2-m-tolyl-ethyl)-piperazine] came in with an EC50 of 1.9 nM.

Take `OC(CN1CCN(c2nc(-c3ccc(Cl)cc3)ns2)CC1)c1cccc(F)c1` (centres unmarked) [Example 63, 2-{4-[3-(4-Chloro-phenyl)-[1,2,4]thiadiazol-5-yl]-piperazin-1-yl}-1-(3-fluoro-phenyl)-ethanol]: the EC50 was 7.4 nM.

Values taken from patent US9023852B2, “1, 2, 4-thiadiazol-5-ylpiperazine derivatives useful in the treatment of neurodegenerative diseases” (Remynd NV, priority 2011, dated 2015).
